Source: ChEMBL document CHEMBL1201862, “PubChem BioAssay data set” (2004)
Activity calls are given as the source filed them.

Key:
[1] = Fluorescence-based cell-based high throughput dose response assay for inhibitors of the interaction of nucleotide-binding oligomerization domain containing 2 (NOD2) and the receptor-interacting serine-threonine kinase 2 (RIPK2).; format: functional; conditions: Homo sapiens
[2] = target: Endoplasmic reticulum aminopeptidase 1 (Homo sapiens, UniProt Q9NZ08); test: ERAP1 aminopeptidase inhibitors, dose response, biochemical, cherry-pick, set 2, plate reader (AID 743314)
Chain of Endoplasmic reticulum aminopeptidase 1 (Q9NZ08 whole entry, the tested form may be a part): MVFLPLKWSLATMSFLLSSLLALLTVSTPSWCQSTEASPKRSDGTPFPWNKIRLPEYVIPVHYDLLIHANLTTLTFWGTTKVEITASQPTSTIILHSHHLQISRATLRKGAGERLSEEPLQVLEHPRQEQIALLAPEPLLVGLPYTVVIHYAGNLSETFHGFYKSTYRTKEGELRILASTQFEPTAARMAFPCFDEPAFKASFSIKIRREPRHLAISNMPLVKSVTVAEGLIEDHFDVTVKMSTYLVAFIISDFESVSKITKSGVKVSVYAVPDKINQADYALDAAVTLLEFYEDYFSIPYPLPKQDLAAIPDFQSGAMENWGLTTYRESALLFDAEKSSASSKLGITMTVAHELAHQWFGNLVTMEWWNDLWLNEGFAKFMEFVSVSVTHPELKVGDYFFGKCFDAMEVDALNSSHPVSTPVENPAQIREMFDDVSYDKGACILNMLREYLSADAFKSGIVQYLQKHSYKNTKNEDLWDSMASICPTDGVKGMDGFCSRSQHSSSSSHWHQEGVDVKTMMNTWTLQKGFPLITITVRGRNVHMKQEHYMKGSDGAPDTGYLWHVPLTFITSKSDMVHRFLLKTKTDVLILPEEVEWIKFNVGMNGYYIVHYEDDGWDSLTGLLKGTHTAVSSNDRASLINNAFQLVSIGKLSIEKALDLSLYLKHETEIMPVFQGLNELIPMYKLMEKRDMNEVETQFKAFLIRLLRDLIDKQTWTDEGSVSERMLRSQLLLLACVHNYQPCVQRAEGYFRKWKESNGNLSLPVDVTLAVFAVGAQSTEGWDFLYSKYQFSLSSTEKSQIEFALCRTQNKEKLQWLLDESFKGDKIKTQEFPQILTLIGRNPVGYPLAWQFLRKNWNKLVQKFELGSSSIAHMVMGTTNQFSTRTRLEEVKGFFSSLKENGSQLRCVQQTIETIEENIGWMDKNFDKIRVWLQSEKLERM

[3] = target: Arf-GAP with SH3 domain, ANK repeat and PH domain-containing protein 1 (Homo sapiens, UniProt Q9ULH1); format: functional;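 further: biochemical fluorescence polarization dose–response screen measuring inhibition of ASAP1; ASAP1 GAP domain stimulating GTP hydrolysis by truncated human ARF1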
Chain of Arf-GAP with SH3 domain, ANK repeat and PH domain-containing protein 1 (Q9ULH1 whole entry, the tested form may be a part): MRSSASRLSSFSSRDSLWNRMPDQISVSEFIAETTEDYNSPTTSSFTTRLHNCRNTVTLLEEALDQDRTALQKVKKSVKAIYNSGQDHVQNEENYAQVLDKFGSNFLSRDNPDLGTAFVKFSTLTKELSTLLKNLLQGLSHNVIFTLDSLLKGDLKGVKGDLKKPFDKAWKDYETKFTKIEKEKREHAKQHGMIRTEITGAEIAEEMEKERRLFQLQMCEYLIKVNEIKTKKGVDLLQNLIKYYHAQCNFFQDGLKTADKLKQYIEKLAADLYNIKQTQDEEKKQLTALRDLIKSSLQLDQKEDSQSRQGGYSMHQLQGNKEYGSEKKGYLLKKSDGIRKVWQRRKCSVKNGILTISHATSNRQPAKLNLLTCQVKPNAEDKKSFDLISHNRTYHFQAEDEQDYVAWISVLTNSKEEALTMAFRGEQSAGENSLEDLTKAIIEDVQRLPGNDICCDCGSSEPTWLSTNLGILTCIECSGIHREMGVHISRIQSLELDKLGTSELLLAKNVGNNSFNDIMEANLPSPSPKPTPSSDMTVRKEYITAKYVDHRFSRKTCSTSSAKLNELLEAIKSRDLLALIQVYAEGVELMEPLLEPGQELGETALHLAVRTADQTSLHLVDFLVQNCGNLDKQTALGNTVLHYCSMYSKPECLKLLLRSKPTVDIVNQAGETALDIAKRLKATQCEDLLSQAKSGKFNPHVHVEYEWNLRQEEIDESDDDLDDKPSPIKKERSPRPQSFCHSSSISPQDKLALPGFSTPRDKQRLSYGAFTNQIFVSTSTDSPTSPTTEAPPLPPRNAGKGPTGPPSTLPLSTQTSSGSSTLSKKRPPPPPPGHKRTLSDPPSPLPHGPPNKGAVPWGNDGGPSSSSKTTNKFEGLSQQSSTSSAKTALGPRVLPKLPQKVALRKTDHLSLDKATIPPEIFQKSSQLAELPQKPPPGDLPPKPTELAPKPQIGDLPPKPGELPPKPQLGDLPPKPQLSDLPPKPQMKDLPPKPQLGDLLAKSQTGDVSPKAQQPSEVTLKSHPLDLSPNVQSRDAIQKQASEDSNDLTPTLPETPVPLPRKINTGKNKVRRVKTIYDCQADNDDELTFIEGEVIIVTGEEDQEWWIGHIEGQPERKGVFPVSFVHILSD

[4] = target: ADP-ribosylation factor GTPase-activating protein 1 (Rattus norvegicus, UniProt Q62848); test: Fluorescence polarization-based biochemical high throughput dose response screening assay to identify inhibitors of ADP-ribosylation factor GTPase activating protein 1 (ARFGAP1).; format: functional
Chain of ADP-ribosylation factor GTPase-activating protein 1 (Q62848 whole entry): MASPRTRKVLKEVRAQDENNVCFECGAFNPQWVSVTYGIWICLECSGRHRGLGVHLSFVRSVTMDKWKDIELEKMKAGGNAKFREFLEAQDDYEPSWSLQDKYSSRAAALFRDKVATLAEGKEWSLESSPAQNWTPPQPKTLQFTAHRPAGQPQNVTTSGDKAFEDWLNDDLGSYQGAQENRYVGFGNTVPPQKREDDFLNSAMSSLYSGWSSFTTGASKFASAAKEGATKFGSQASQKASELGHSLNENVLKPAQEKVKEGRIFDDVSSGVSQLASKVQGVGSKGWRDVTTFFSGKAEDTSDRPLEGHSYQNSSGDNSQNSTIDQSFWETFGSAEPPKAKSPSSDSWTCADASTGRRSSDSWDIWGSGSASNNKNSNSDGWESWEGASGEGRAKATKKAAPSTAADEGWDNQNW

[5] = target: Metabotropic glutamate receptor 3 (Rattus norvegicus, UniProt P31422); test: mGlu3 negative allosteric modulator potency, dose response, HEK/GIRK cells, thallium flux, rat (AID 651839); format: functional
Chain of Metabotropic glutamate receptor 3 (P31422 whole entry): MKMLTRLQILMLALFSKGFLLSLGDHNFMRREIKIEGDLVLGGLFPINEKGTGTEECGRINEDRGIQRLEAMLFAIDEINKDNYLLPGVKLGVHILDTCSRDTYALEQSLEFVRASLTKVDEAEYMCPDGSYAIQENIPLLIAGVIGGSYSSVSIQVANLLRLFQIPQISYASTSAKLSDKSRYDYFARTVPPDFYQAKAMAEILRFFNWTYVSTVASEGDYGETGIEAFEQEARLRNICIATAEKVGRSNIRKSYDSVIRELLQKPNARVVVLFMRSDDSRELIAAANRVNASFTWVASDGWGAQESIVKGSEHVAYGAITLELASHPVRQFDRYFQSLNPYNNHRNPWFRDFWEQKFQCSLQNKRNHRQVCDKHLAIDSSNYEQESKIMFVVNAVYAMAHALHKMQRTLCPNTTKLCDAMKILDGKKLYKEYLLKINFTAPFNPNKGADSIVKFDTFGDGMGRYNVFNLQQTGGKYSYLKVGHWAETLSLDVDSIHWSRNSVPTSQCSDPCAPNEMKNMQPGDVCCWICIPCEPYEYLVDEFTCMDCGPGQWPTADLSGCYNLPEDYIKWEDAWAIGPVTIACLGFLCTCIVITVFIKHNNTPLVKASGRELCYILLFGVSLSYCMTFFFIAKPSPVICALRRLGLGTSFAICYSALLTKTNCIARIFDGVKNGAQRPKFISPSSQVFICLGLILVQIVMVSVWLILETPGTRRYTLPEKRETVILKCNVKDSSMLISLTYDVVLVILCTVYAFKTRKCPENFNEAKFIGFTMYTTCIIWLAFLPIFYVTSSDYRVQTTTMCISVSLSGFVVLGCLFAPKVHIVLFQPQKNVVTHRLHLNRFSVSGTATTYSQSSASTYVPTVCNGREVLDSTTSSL

[6] = system: Vero; test: Vero cell toxicity, dose response, cytotoxicity control, plate reader, cherry-pick samples (AID 687020); format: functional, cell-based; conditions: Chlorocebus sabaeus
[7] = inhibitors of HIV Env-driven cell fusion, dose response, cherry-pick (AID 652057); format: functional, cell-based
[8] = intracellular Trypanosoma cruzi inhibitors in host cells – cell-based, plate reader, cherry-pick samples, set 3, dose response (AID 651818); format: functional;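 further: compounds incubated with infected cells for about four days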
[9] = CEM21 lymphoblast cell cytotoxicity, dose response, cytotoxicity control for viral fusion inhibitor project, CellTiter-Glo luminescence, cherry-picked (AID 652042); format: functional, cell-based;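 further: potency for signal decrease meaning cytotoxicity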
[10] = inhibitors of clade B AD8 Env fusion, dose response, cell-based, cherry-pick (AID 652062); format: functional;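 further: luciferase signal from cell-cell fusion driven by HIV-1 clade B AD8 Env; potency is for inhibitors of fusion seen as a drop in luminescence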
[11] = NIH/3T3 fibroblast cytotoxicity, dose response, cytotoxicity control for T. cruzi growth inhibitor project, cell-based, cherry-pick samples, set 2 (AID 651817); format: functional; conditions: NIH3T3
[12] = cells; format: functional, cell-based; conditions: HEK-CNG
[13] = target: Galanin receptor type 3 (Homo sapiens, UniProt O60755); test: Fluorescence-based cell-based primary high throughput dose response assay to identify antagonists of the Galanin Receptor 3 (GalR3).; format: functional
Chain of Galanin receptor type 3 (O60755 whole entry): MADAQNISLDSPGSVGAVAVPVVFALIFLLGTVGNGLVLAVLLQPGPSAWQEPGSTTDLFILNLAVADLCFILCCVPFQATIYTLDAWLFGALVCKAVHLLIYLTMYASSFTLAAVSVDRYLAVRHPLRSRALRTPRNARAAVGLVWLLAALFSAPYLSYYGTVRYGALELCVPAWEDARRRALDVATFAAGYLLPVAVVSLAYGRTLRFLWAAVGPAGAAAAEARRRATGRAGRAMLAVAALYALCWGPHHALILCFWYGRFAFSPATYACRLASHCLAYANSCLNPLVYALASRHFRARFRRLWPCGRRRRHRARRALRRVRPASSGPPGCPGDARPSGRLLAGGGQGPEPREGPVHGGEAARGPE

[14] = target: T1, Beta-lactamase (Salmonella choleraesuis (strain SC-B67), UniProt Q5J463)
T1 sequence (Q5J463 whole entry): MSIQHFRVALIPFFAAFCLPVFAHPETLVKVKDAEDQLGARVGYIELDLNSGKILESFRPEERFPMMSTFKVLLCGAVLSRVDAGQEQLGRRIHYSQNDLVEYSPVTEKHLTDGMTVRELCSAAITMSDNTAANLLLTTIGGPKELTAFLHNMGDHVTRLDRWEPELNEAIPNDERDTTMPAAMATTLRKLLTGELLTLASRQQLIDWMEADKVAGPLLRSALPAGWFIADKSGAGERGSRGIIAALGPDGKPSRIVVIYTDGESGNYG

[15] = target: T2, Beta-lactamase (Pseudomonas aeruginosa, UniProt Q79MP6)
T2 sequence (Q79MP6 whole entry): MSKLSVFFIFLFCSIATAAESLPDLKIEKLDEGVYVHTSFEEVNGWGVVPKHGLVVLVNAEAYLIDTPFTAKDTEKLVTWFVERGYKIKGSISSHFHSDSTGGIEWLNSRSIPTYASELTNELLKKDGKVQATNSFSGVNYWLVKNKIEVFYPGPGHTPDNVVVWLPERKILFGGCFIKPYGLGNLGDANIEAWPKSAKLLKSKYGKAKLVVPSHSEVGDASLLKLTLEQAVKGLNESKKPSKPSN

[16] = HEK293T cell cytotoxicity, dose response, cytotoxicity control for HIV Vif inhibitor project, cherry-picks (AID 652208); format: functional, cell-based
[17] = Luminescence Cell-Based Dose Retest to Confirm Inhibitors of Cancer Stem Cells. [Related pubchem assays (depositor defined):AID2717, AID2721]; format: functional; conditions: Homo sapiens
[18] = target: T1, Beta-lactamase; test: Epi-absorbance-based counterscreen for selective VIM-2 inhibitors: dose response biochemical high throughput screening assay to identify inhibitors of TEM-1 serine-beta-lactamase.
[19] = target: T3, Coagulation factor XII (Homo sapiens, UniProt P00748); format: functional;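 further: activated factor XIIa alpha cleaving a fluorogenic AMC peptide substrate; inhibitor potency from loss of enzyme activity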
T3 sequence (P00748 whole entry): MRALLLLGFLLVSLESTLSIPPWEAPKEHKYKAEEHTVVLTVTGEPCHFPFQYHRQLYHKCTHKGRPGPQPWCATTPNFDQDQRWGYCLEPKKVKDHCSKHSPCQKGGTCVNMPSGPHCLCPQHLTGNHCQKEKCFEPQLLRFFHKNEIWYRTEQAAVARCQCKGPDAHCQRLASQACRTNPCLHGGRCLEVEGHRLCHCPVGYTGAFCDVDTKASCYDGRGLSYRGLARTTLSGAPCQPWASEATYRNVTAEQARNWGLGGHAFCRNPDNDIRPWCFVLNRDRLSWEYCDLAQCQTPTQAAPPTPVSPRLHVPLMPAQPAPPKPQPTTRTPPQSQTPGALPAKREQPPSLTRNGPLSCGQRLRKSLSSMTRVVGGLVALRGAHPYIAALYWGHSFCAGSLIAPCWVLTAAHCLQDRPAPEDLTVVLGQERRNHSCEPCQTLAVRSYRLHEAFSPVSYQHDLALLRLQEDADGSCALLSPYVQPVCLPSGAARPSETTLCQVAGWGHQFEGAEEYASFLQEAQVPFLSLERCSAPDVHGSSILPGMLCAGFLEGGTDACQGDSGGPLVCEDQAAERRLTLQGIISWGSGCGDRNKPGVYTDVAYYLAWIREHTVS

[20] = target: T2, Beta-lactamase; test: […] counterscreen for selective VIM-2 inhibitors: dose response biochemical high throughput screening assay to identify inhibitors of IMP-1 metallo-beta-lactamase.
[21] = target: T2, Beta-lactamase; test: IMP-1 metallo-beta-lactamase inhibitors, dose response, selectivity assay for VIM-2 inhibitor project, biochemical, epi-absorbance (AID 1920)
[22] = TRPM1 promoter luciferase reporter signal decrease, dose response, MITF inhibitor project, cell-based, SK-MEL-5, dry powder, set 8 (AID 624430); format: functional
[23] = MITF: Counter assay: A375 proliferation Measured in Cell-Based System Using Plate Reader - 2084-03_Inhibitor_Dose_DryPowder_Activity_Set8.; format: functional; conditions: A-375
[24] = MITF Orthogonal Assay: SK-MEL-5 CTG Assay Measured in Cell-Based System Using Plate Reader - 2084-02_Inhibitor_Dose_DryPowder_Activity_Set7.; format: functional
[25] = ARNT/TACC3 interaction disruptors, potency, confirmation, biochemical, AlphaScreen, cherry-picked samples (AID 651703); format: functional, Homo sapiens;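 further: His-tagged ARNT PAS-B domain paired with GST-TACC3 E629A dimer coactivator fragment; potency of inhibitors that break up the complex and lower AlphaScreen signal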
[26] = HEK293T cell cytotoxicity, dose response, cytotoxicity control, luminescence plate reader, powder samples, set 4 (AID 651863); format: functional, cell-based; conditions: HEK293
[27] = target: T4, Sentrin-specific protease 1 (Homo sapiens, UniProt Q9P0U3); test: potency of human SENP1 inhibitors, dose response, biochemical, kinetic FRET (AID 651697); format: functional; conditions: read-out: IC50_Mean
T4 sequence (Q9P0U3 whole entry, the tested form may be a part): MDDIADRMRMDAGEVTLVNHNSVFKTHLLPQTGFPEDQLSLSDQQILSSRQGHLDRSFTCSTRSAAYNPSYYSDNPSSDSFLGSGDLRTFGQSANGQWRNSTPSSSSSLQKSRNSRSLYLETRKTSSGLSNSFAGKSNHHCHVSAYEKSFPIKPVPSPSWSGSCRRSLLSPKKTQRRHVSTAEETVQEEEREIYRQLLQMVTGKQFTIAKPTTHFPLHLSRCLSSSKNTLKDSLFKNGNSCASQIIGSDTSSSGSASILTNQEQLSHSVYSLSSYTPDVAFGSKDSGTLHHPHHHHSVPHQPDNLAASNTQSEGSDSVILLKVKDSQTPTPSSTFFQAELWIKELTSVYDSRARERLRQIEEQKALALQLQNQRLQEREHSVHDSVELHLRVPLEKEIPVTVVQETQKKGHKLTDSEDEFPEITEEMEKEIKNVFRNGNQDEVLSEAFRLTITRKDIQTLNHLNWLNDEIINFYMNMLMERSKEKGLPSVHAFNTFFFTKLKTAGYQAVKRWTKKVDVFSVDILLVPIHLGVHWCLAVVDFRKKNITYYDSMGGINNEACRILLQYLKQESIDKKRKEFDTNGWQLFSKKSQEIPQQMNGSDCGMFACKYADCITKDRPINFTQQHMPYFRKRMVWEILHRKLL

[28] = target: T4, Sentrin-specific protease 1; test: Dose response confirmation of small molecule inhibitors of the catalytic domain of the SUMO protease, SENP1 in a FRET assay.; format: functional; conditions: read-out: IC50_Mean
[29] = HepG2 cell cytotoxicity, dose response, cytotoxicity control, cherry-picks, set 5 (AID 1053118); format: functional, cell-based
[30] = Counterscreen for antagonists of the human trace amine associated receptor 1 (hTAAR1): Fluorescence-based cell-based high throughput dose response assay to identify nonselective Ga16 antagonists.; format: functional
[31] = system: H4; test: Luminescence Cell-Based Dose Response HTS to Identify Activators of 5'UTR Stem-Loop Driven Prion Protein mRNA Translation in H4 Neuroglioblastoma Cells. [Related pubchem assays: 1829 (Project Summary), 1814 (Primary HTS)]; format: functional; conditions: Homo sapiens
[32] = target: T5, Trace amine-associated receptor 1 (Homo sapiens, UniProt Q96RJ0); test: Fluorescence-based cell-based high throughput dose response assay to identify antagonists of the human trace amine associated receptor 1 (TAAR1).; format: functional
T5 sequence (Q96RJ0 whole entry): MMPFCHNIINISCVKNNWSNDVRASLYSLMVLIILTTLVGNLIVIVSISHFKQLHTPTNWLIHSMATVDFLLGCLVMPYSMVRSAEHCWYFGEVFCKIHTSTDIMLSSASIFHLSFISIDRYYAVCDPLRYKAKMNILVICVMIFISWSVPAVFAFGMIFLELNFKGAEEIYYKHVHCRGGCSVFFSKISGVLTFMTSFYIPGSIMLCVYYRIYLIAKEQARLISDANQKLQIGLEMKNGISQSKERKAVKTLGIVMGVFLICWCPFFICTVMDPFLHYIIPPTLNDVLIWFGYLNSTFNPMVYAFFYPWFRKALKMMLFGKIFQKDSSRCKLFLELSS

[33] = Counterscreen for […] of the human trace amine associated receptor 1 (TAAR1): Fluorescence-based cell-based high throughput dose response assay to identify nonselective Ga16 agonists.; format: functional
[34] = Luminescence Cell-Based Dose Response HTS to Identify Activators of Luciferase Translation or Activity in H4 […] Cells. [Related pubchem assays: 1829 (Project Summary), 1814 (Primary HTS)]; format: functional
[35] = target: T5, Trace amine-associated receptor 1; test: Counterscreen for antagonists of the human trace amine associated receptor 1 (hTAAR1): Fluorescence-based cell-based high throughput dose response assay to identify TAAR1 Agonists.; format: functional
[36] = target: T6, Aryl hydrocarbon receptor (Homo sapiens, UniProt P35869); test: Luminescence-based cell-based high throughput dose response assay for activators of the Aryl Hydrocarbon Receptor (AHR). [Related pubchem assays: 2796 (Primary screen (AHR activators in singlicate)), 2845 (Confirmation screen (AHR activators in triplicate)), 434939 (Counterscreen (PXR activators in triplicate)), 2804 (Summary (AHR activators))]; format: ADME
T6 sequence (P35869 whole entry): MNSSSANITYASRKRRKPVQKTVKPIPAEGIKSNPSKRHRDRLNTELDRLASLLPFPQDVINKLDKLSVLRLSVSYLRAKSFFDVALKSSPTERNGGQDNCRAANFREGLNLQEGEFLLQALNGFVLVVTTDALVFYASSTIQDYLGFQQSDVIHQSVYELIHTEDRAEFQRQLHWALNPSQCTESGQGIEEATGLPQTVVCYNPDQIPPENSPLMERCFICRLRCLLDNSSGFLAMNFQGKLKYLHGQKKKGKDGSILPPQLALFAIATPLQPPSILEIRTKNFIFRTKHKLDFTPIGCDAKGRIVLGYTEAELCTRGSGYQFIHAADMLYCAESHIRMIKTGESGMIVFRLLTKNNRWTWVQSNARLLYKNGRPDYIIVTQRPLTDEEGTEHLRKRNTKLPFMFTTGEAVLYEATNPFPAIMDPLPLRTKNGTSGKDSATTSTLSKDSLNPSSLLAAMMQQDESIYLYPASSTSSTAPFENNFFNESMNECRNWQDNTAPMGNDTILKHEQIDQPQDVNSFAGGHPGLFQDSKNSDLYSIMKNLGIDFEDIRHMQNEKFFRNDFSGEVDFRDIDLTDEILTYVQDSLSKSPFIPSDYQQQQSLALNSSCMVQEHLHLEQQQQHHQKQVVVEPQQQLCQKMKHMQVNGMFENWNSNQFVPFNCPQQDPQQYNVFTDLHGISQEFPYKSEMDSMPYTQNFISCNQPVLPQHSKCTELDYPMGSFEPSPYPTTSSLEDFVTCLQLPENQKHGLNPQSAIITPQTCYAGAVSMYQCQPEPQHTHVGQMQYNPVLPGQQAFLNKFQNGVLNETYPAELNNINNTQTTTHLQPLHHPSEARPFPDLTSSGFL

[37] = target: T6, Aryl hydrocarbon receptor; conditions: Potency

C=CCOc1ccccc1C(=O)/C=C1/C(=O)Nc2ccccc21
IC50 [1]: 3.58 µM (active)

COc1ccc2c3c([nH]c2c1)[C@@H](CO)N(Cc1ccccc1OC)CC31CN(C)C1
AC50 [2]: 15.8 µM (active)

COc1ccc(/C=N\NC(=O)c2ccc([N+](=O)[O-])cc2)cc1COc1c(F)c(F)cc(F)c1F
IC50 [3]: 15.7 µM (inactive) | IC50 [4]: 12.4 µM (inactive)

COc1ccc(C#Cc2ccc(C(=O)N3CCC[C@@H](O)C3)cc2)c(F)c1
IC50 [5]: 4.29 µM

Cc1cccc(OC(C)C(=O)Nc2nc(-c3ccncc3)cs2)c1 (configuration not stated)
AC50 [6]: 35.8 µM (active)

C[C@@H]1CN([C@H](C)CO)C(=O)c2cccc(NC(=O)c3ccncc3)c2O[C@H]1CN(C)Cc1ccc(Cl)c(Cl)c1
AC50 [7]: 7.3 µM (active) | AC50 [8]: 80 nM (active) | AC50 [9]: 38.5 µM (active) | AC50 [10]: 29.8 µM (active) | AC50 [11]: 27.6 µM (active)

C[C@H]1C[C@H]2[C@@H]3CCC4=CC(=O)C=C[C@]4(C)[C@@]3(F)[C@@H](O)C[C@]2(C)[C@@]1(O)C(=O)CO [BETAMETHASONE]
EC50 [12]: > 29.9 µM (inactive) | IC50 [13]: > 29.9 µM (inactive)

O=C(Nc1ccc(C(F)(F)F)cc1)c1ccc(NC(=O)C2CCCO2)cc1 (configuration not stated)
IC50 [14]: > 59.6 µM (inactive) | IC50 [15]: 47.5 µM (inactive)

Cc1cc(C)cc(NC(=O)CCc2nc(O)c3c4c(sc3n2)CCCC4)c1
AC50 [16]: 37.5 µM (active) | AC50 [17]: 910 nM (active)

CSc1nc(SCC(=O)O)c2c3c(sc2n1)COC(C)(C)C3
IC50 [18]: > 59.6 µM (inactive) | IC50 [19]: > 50 µM (inactive) | IC50 [20]: > 59.6 µM (inactive) | IC50 [21]: > 59.6 µM (inactive)

CCN1CCN(C2=C(Nc3cccc(Br)c3)C(=O)c3ccccc3C2=O)CC1
AC50 [22]: 3.45 µM (active) | AC50 [23]: 26.2 µM (active) | AC50 [24]: 8.08 µM (active)

COC(=O)C(CC#Cc1ccc2c(c1)[C@]1(C(=O)N2)[C@H](c2ccc(O)cc2)N2[C@H](c3ccccc3)[C@H](c3ccccc3)OC(=O)[C@H]2[C@@H]1C(=O)N1CCCCCCC1)C(=O)OC
AC50 [25]: 104 µM (active)

O=C(O)C1CCCCC1C(=O)N1CCc2ccccc2[C@H]1C(=O)NC12CC3CC(CC(C3)C1)C2 (some centres not stated)
AC50 [26]: > 52 µM (inactive)

Nc1ccc2c(c1)C(=NO)c1cc([N+](=O)[O-])ccc1-2
IC50 [27]: 18.1 µM (active) | IC50 [28]: 3.12 µM (active)

COCC(=O)Nc1ccc2c(c1)C(=O)N(C)[C@H]1CC[C@@H](CC(=O)NCc3ccccc3Cl)O[C@@H]1CO2
AC50 [29]: > 52 µM (inactive)

O=C(Nc1ccccc1OC(=O)c1ccc(Cl)cc1)c1ccc(Cl)cc1
IC50 [30]: > 9.97 µM (active) | EC50 [31]: 13.7 µM (active) | IC50 [32]: 7.96 µM (active) | EC50 [33]: > 29.9 µM (inactive) | EC50 [34]: > 120 µM (not active) | EC50 [35]: 15.7 µM (inactive) | EC50 [36]: 4.89 µM (active)

CNc1cnn(-c2cccc(C(F)(F)F)c2)c(=O)c1Cl [NORFLURAZONE]
AC50 [37]: 31.6 µM (inconclusive)
